Experimental data: patent US11447503B2, “Pyridine carbamates and their use as GLUN2B receptor modulators” (JANSSEN PHARMACEUTICA NV, priority 2019, dated 2022)

Each compound was assayed against human GluN1/GluN2B NMDA receptors (Homo sapiens, UniProt Q05586+Q13224) (assay: Cell-based calcium flux (FLIPR) assay on cloned human GluN1/GluN2B ion channels expressed in mammalian cells). Conditions: standard assay; glutamate ~EC40, 10 μM glycine; stable Tet-On cell line.
Method: 5.3. Biological Assays: Effect of Compounds of Formula (I) on Cloned Human GluN1/GluN2B Ion Channels Expressed in Mammalian Cells
NMDA receptors are ion channels that are highly permeable to Ca^2+ ions, rendering it possible to monitor NMDA receptor function using cell-based calcium flux assay. In this assay, co-agonists glutamate and glycine are added to cells heterologously expressing human GluN1/GluN2B NMDA receptors to initiate cellular Ca^2+ influx. The time course of the changes in intracellular calcium is measured using a fluorescent dye and a FLIPR (Fluorometric Imaging Plate Reader) device.
Twenty four hours before measurements, the expression of the NMDA receptors in the stable cell line is induced with Tet-On inducible system in the presence of a non-selective NMDA receptor blocker. On the day of the experiment, cell culture media is carefully washed and the cells are loaded with Calcium 5 Dye Kit (Molecular Devices) in dye loading buffer containing 137 mM NaCl, 4 mM KCl, 2 mM CaCl2, 0.5 mM MgCl2 (standard assay) or 1.5 mM MgCl2 (HTS assay), 10 mM HEPES and 5 mM D-glucose; pH 7.4. After 1 h incubation at the room temperature, the dye is washed away with the assay buffer (137 mM NaCl (standard assay) or 150 mM (HTS assay), 4 mM KCl (standard assay) or 3 mM (HTS assay), 2 mM CaCl2, 0.01 mM EDTA, 10 mM HEPES and 5 mM D-glucose; pH 7.4) In the FLIPR TETRA reader, various concentrations of the test compounds are added to the cells for 5 min while fluorescence is monitored to detect potential agonist activity. Next, co-agonists, glutamate and glycine are added for another 5 minutes. The concentration of glutamate corresponding to ˜EC40 (standard assay) or EC40 (HTS assay) is used to maximize the assay's signal window and ability to detect NMDA receptor antagonists and negative allosteric modulators. A saturating concentration (10 μM) of glycine is also present in the assay. A non-selective NMDA receptor antagonist, (+)MK-801 is used as a positive control for antagonist activity. The fluorescent signal in the presence of test compounds is quantified and normalized to the signal defined by the appropriate control wells.

Sequence of human GluN1/GluN2B NMDA receptors (Q13224 27-1484, other chains not shown): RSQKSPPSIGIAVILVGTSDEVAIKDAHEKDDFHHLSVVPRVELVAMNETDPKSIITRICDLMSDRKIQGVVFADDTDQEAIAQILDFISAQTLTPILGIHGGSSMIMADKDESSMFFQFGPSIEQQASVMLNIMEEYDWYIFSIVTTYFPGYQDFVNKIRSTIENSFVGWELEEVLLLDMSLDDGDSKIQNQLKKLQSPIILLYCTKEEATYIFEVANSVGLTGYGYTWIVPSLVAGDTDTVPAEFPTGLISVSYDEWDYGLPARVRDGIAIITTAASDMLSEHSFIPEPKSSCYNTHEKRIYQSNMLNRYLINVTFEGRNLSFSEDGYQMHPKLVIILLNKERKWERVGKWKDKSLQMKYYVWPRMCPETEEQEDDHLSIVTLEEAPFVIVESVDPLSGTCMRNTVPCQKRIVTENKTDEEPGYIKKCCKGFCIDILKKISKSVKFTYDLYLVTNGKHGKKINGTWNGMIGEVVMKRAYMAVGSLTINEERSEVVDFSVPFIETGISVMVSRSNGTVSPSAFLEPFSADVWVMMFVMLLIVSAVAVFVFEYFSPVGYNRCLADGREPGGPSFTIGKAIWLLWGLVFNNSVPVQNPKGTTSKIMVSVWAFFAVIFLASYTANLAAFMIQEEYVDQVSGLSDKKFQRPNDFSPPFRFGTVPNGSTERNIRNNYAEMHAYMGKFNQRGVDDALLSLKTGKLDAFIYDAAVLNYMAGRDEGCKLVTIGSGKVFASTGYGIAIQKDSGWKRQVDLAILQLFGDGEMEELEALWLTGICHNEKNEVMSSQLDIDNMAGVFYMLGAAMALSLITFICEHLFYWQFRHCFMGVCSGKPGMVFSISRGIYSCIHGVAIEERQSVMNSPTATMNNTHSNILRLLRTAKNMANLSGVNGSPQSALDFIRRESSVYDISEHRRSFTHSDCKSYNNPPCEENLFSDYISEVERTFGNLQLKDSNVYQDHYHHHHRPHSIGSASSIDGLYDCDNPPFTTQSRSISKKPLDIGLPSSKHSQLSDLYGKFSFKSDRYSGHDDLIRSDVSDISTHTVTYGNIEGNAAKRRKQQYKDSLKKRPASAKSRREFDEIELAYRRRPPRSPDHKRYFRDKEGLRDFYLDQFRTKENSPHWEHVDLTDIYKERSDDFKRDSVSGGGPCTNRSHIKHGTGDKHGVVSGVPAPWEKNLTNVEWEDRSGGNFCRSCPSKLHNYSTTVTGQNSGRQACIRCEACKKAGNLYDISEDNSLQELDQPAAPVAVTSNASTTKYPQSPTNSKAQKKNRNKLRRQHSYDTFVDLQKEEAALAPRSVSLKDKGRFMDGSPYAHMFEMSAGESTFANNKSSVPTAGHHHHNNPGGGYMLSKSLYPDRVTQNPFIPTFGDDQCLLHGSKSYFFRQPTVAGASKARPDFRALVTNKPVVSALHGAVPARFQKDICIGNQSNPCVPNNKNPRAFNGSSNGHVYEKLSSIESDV

Row | SMILES | IC50 [nM]
1 | Cc1ncc(-c2cccc(OC(F)F)c2)cc1CN1CCCOC1=O [Example 63, 3-[[5-[3-(Difluoromethoxy)phenyl]-2-methyl-3-pyridyl]methyl]-1,3-oxazinan-2-one] | 174
2 | Cc1ncc(-c2cccc(Cl)c2)cc1CN1CCCOC1=O [Example 64, 3-[[5-(3-Chlorophenyl)-2-methyl-3-pyridyl]methyl]-1,3-oxazinan-2-one] | 406
3 | Cc1ncc(-c2ccc(F)c(Cl)c2)cc1CN1CCCOC1=O [Example 65, 3-[[5-(3-Chloro-4-fluoro-phenyl)-2-methyl-3-pyridyl]methyl]-1,3-oxazinan-2-one] | 30
4 | Cc1cc(-c2cnc(C)c(CN3CCCOC3=O)c2)ccc1F [Example 66, 3-[[5-(4-Fluoro-3-methyl-phenyl)-2-methyl-3-pyridyl]methyl]-1,3-oxazinan-2-one] | 23
5 | Cc1ncc(-c2ccc(F)c(F)c2)cc1CN1CCCOC1=O [Example 67, 3-[[5-(3,4-Difluorophenyl)-2-methyl-3-pyridyl]methyl]-1,3-oxazinan-2-one] | 344
6 | Cc1ncc(-c2ccc(F)cc2)cc1CN1CCCOC1=O [Example 68, 3-[[5-(4-Fluorophenyl)-2-methyl-3-pyridyl]methyl]-1,3-oxazinan-2-one] | > 3000
7 | Cc1ncc(-c2cccc(F)c2)cc1CN1CCCOC1=O [Example 69, 3-[[5-(3-Fluorophenyl)-2-methyl-3-pyridyl]methyl]-1,3-oxazinan-2-one] | 3020
8 | Cc1cc(-c2cnc(C)c(CN3CCCOC3=O)c2)cc(F)c1F [Example 70, 3-[[5-(3,4-Difluoro-5-methyl-phenyl)-2-methyl-3-pyridyl]methyl]-1,3-oxazinan-2-one] | 13
9 | Cc1ncc(-c2ccc(F)c(C)c2F)cc1CN1CCCOC1=O [Example 71, 3-[[5-(2,4-Difluoro-3-methyl-phenyl)-2-methyl-3-pyridyl]methyl]-1,3-oxazinan-2-one] | 22
10 | Cc1ncc(-c2ccc(F)cc2F)cc1CN1CCCOC1=O [Example 72, 3-[[5-(2,4-Difluorophenyl)-2-methyl-3-pyridyl]methyl]-1,3-oxazinan-2-one] | 2240
11 | Cc1ncc(-c2ccc(Cl)c(Cl)c2)cc1CN1CCCOC1=O [Example 73, 3-[[5-(3,4-Dichlorophenyl)-2-methyl-3-pyridyl]methyl]-1,3-oxazinan-2-one] | 19
12 | Cc1ncc(-c2cccc(C(F)(F)F)c2)cc1CN1CCCOC1=O [Example 74, 3-[[2-Methyl-5-[3-(Trifluoromethyl)phenyl]-3-pyridyl]methyl]-1,3-oxazinan-2-one] | 50
13 | Cc1ncc(-c2ccc(F)c(C(F)(F)F)c2)cc1CN1CCCOC1=O [Example 75, 3-[[5-[4-Fluoro-3-(trifluoromethyl)phenyl]-2-methyl-3-pyridyl]methyl]-1,3-oxazinan-2-one] | 39
14 | Cc1cc(-c2cnc(C)c(CN3CCOC3=O)c2)ccc1F [Example 76, 3-[[5-(4-Fluoro-3-methyl-phenyl)-2-methyl-3-pyridyl]methyl]oxazolidin-2-one] | 19
15 | Cc1ncc(-c2ccc(F)c(C)c2F)cc1CN1CCOC1=O [Example 77, 3-[[5-(2,4-Difluoro-3-methyl-phenyl)-2-methyl-3-pyridyl]methyl]oxazolidin-2-one] | 13
16 | Cc1ncc(-c2ccc(F)c(C(C)(F)F)c2)cc1CN1CCOC1=O [Example 78, 3-[[5-[3-(1,1-Difluoroethyl)-4-fluoro-phenyl]-2-methyl-3-pyridyl]methyl]oxazolidin-2-one] | 32
17 | Cc1ncc(-c2ccc(F)c(OC(F)F)c2)cc1CN1CCOC1=O [Example 79, 3-[[5-[3-(Difluoromethoxy)-4-fluoro-phenyl]-2-methyl-3-pyridyl]methyl] oxazolidin-2-one] | 10
18 | Cc1ncc(-c2ccc(F)c(OC(F)F)c2)cc1CN1CC2(CC2)OC1=O [Example 84, 5-[[5-[3-(Difluoromethoxy)-4-fluoro-phenyl]-2-methyl-3-pyridyl]methyl]-7-oxa-5-azaspiro[2.4]heptan-6-one] | 52
19 | Cc1ncc(-c2ccc(F)c(OC(F)F)c2)cc1CN1CC2(CCC2)OC1=O [Example 85, 6-[[5-[3-(Difluoromethoxy)-4-fluoro-phenyl]-2-methyl-3-pyridyl]methyl]-8-oxa-6-azaspiro[3.4]octan-7-one] | 107

Results, then the compound that gave them:

Row | IC50 [nM] | SMILES
20 | 373 | Cc1ncc(-c2ccc(F)c(OC(F)F)c2)cc1CN1CC(C)(C)OC1=O [Example 87, 3-[[5-[3-(Difluoromethoxy)-4-fluoro-phenyl]-2-methyl-3-pyridyl]methyl]-5,5-dimethyl-oxazolidin-2-one]
21 | 22 | Cc1ncc(-c2ccc(F)c(OC(F)F)c2)cc1CN1CCCOC1=O [Example 88, 3-[[5-[3-(Difluoromethoxy)-4-fluoro-phenyl]-2-methyl-3-pyridyl]methyl]-1,3-oxazinan-2-one]
22 | 14 | Cc1ncc(-c2ccc(Cl)c(OC(F)F)c2)cc1CN1CCOC1=O [Example 89, 3-[[5-[4-Chloro-3-(difluoromethoxy)phenyl]-2-methyl-3-pyridyl]methyl]oxazolidin-2-one]
23 | 84 | Cc1ncc(-c2ccc(F)c(C(F)F)c2)cc1CN1CC2(CCC2)OC1=O [Example 91, 6-[[5-[3-(Difluoromethyl)-4-fluoro-phenyl]-2-methyl-3-pyridyl]methyl]-8-oxa-6-azaspiro[3.4]octan-7-one]
24 | 63 | Cc1ncc(-c2ccc(F)c(C(F)F)c2)cc1CN1C[C@@H](C)OC1=O [Example 92, (5R)-3-[[5-[3-(Difluoromethyl)-4-fluoro-phenyl]-2-methyl-3-pyridyl]methyl]-5-methyl-oxazolidin-2-one]
25 | 526 | Cc1ncc(-c2ccc(F)c(C(F)F)c2)cc1CN1CC(C)(C)OC1=O [Example 93, 3-[[5-[3-(Difluoromethyl)-4-fluoro-phenyl]-2-methyl-3-pyridyl]methyl]-5,5-dimethyl-oxazolidin-2-one]
26 | 31 | Cc1ncc(-c2ccc(F)c(C(F)F)c2)cc1CN1CC2(CC2)OC1=O [Example 96, 5-[[5-[3-(Difluoromethyl)-4-fluoro-phenyl]-2-methyl-3-pyridyl]methyl]-7-oxa-5-azaspiro[2.4]heptan-6-one]
27 | 187 | Cc1ncc(-c2ccc(Cl)s2)cc1CN1CCOC1=O [Example 98, 3-[[5-(5-Chloro-2-thienyl)-2-methyl-3-pyridyl]methyl]oxazolidin-2-one]
28 | 16 | Cc1ncc(-c2ccc(C(F)(F)F)s2)cc1CN1CCOC1=O [Example 99, 3-[[2-Methyl-5-[5-(trifluoromethyl)-2-thienyl]-3-pyridyl]methyl]oxazolidin-2-one]
29 | 42 | Cc1ncc(-c2ccc(C(F)F)s2)cc1CN1CCOC1=O [Example 100, 3-[[5-[5-(Difluoromethyl)-2-thienyl]-2-methyl-3-pyridyl]methyl]oxazolidin-2-one]
30 | 53 | COc1ncc(-c2cccc(C(F)(F)F)c2)cc1CN1CCOC1=O [Example 101, 3-[[2-Methoxy-5-[3-(trifluoromethyl)phenyl]-3-pyridyl]methyl]oxazolidin-2-one]
31 | 172 | COc1ncc(-c2cc(F)c(F)c(F)c2)cc1CN1CCOC1=O [Example 102, 3-[[2-Methoxy-5-(3,4,5-trifluorophenyl)-3-pyridyl]methyl]oxazolidin-2-one]
